In US20260174672A1, “COMPLEX FOR IMPROVING SKIN CONDITION” (LG H&H CO., LTD., priority 2022, published 2026):

Legend:
human fibroblasts = assay: Cell activity effect in vitro (CCK-8); assay type: cell-based; conditions: 48 hours, CCK-8, concentrations of Table 2, (sample − negative control) ÷ negative control × 100, in %
Source text: (§1) For the evaluation of in vitro skin improvement efficacy, chondroitin sulfate (CS), glutamine (Q), arginine (R), Examples 1 and 2 (CS-R complex and CS-Q complex), and Comparative Examples 1 and 2 (CS/R mixture and CS/Q mixture) were used as culture solutions, and were ultimately included at the concentrations shown in the following Table 2 in each evaluation.
To compare the effects of chondroitin sulfate (CS), arginine (R), and glutamine (Q), a simple mixture of chondroitin sulfate and an amino acid (CS/AA mixture), and a chondroitin sulfate-amino acid complex (CS-AA complex) on skin cell activity, human fibroblast culture was used to confirm whether cell activity was increased.
Specifically, human fibroblasts were aliquoted at 5×10^3 cells/well and cultured in a DMEM medium containing 10% FBS for 24 hours. Subsequently, the culture medium was removed, and the cells were treated with each sample at a predetermined concentration according to Table 2 for 48 hours. Then, a reagent provided in a CCK-8 kit (DOJINDO, Cell Counting Kit-8, catalog No. CK04) was added, the resulting mixture was incubated for 4 hours, and then absorbance was measured at 450 nm using an ELISA reader.

[1] = system: Zonula Occludens-1 (ZO-1) in HaCaT cells; assay: mRNA expression of tight junction protein ZO-1 (real-time PCR); assay type: cell-based, human; conditions: 24 hours, concentrations of Table 2, (sample − negative control) ÷ negative control × 100
Source text: as §1
To compare the skin barrier recovery effects of chondroitin sulfate (CS), glutamine (Q), a simple mixture of chondroitin sulfate and glutamine (CS/Q mixture), and a chondroitin sulfate-glutamine complex (CS-Q complex), it was confirmed whether the expression of Zonula Occludens-1 (ZO-1), one of the proteins that make up the tight junctions at the intercellular junctions in the skin barrier, was increased.
Specifically, human keratinocyte cell line HaCaT cells were first cultured at 37° C. in a 5% CO2 environment in a DMEM medium (Gibco, Waltham, MA, USA) supplemented with 10% fetal bovine serum (FBS, Gibco, Waltham, MA, USA), […] penicillin, and […] streptomycin. […] The concentration of the extracted RNA was quantified, and 1 μg of RNA was reacted with a cDNA synthesis kit (ET21100, PhileKorea Technology) at 42° C. for 30 minutes and 72° C. for 10 minutes to synthesize cDNA. […]

[2] = system: hyaluronic acid production in human dermal fibroblasts; assay: Hyaluronic acid synthesis effect in vitro (Hyaluronan ELISA); assay type: cell-based; conditions: 24 hours, concentrations of Table 2, (sample − negative control) ÷ negative control × 100
Source text: as §1
To compare the skin moisturizing effects of chondroitin sulfate (CS), arginine (R), and glutamine (Q), a simple mixture of chondroitin sulfate and an amino acid (CS/AA mixture), and a chondroitin sulfate-amino acid complex (CS-AA complex), human dermal fibroblasts were used to confirm whether the production of hyaluronic acid was increased.
Specifically, fibroblasts were cultured in a DMEM medium containing 10% FBS until the cells occupied 80% of the culture dish. Subsequently, the cells were treated with each sample at a predetermined concentration according to Table 2 for 24 hours, and then the concentration of hyaluronic acid was measured using a Hyaluronan ELISA kit (R&D systems, catalog No. DY3614-05).

[3] = system: type I collagen (procollagen type 1-C propeptide, PICP) in human fibroblasts; assay: Collagen synthesis effect in vitro (PICP EIA); assay type: cell-based; conditions: 48 hours, concentrations of Table 2, (sample − negative control) ÷ negative control × 100
Source text: as §1
To compare the wrinkle amelioration effects of chondroitin sulfate (CS), arginine (R), and glutamine (Q), a simple mixture of chondroitin sulfate and an amino acid (CS/AA mixture), and a chondroitin sulfate-amino acid complex (CS-AA complex), the effect of promoting the synthesis of type I collagen was confirmed using skin fibroblasts. For the evaluation, procollagen type 1-C propeptide (PICP), which is typically synthesized in the highest amount in fibroblasts, was quantified.
Specifically, human fibroblasts were aliquoted at 1×10^5 cells/well in a 48-well culture plate and cultured in a Dulbecco's Modified Eagle's Medium (DMEM, Gibco) medium containing 10% fetal bovine serum (FBS) for 24 hours. Subsequently, the medium was replaced with a serum-free DMEM medium containing 2 wt % of each culture solution according to Table 2 to treat cells with an analyte for 48 hours. Next, 20 μl of the culture supernatant was taken to measure the degree of collagen increase at each concentration at 450 nm using a Procollagen Type-1-C-peptide Enzyme Immuno Assay (PICP EIA) kit.

[4] = system: Staphylococcus epidermidis; assay: Growth rate of beneficial skin bacterium (optical density); assay type: cell-based; conditions: TSB medium, 30 to 37° C., 6 to 18 hours, concentrations of Table 2; relative to negative control
Procedure: To evaluate the prebiotic ability of Example 2, the degrees of enhancement in beneficial bacteria among the skin resident flora were compared before and after the CS or Example 2 treatment. Staphylococcus epidermidis was selected as a representative beneficial bacterium, and the growth rates of the beneficial bacterium were compared before and after treatment with the materials.
The growth rate of the beneficial bacterium was evaluated by the following method. A sterile liquid medium was prepared using a commercial tryptic soy broth (TSB, DFICO) medium, and a glycerol stock of S. epidermidis was inoculated into the sterile liquid TSB medium and pre-cultured at 30 to 37° C. for 6 to 18 hours. Such a pre-culture was performed once to twice. Thereafter, chondroitin sulfate (CS) and Example 2 were added to a sterile liquid TSB medium at each predetermined concentration according to Table 2, and the preculture solution was inoculated to culture cells at 30 to 37° C. for 6 to 18 hours.
After culture, the optical density (OD) immediately after inoculation and the optical density during the stationary phase of growth were measured, and the ratio of these values (growth rate) was compared. […] After the evaluation was carried out three times, the average growth rate, the standard deviation, and the like were calculated, and then the significance was verified by a t-test.

[5] = system: Raw 264.7 cells (NO production); assay: Suppression of NO production in LPS-treated macrophages (Griess); assay type: cell-based, mouse; conditions: Raw264.7 cells, sample 30 minutes then 500 ng/ml LPS 18 hours, concentrations of Table 2
Source text: as §1
To compare the skin soothing effects of chondroitin sulfate (CS), arginine (R), and glutamine (Q), a simple mixture of chondroitin sulfate and an amino acid (CS/AA mixture), and a chondroitin sulfate-amino acid complex (CS-AA complex), mouse macrophage cell line Raw 264.7 cells (ATCC, catalog No. CRL-2788) was used to confirm whether the production of NO was suppressed.
Specifically, Raw264.7 cells were aliquoted at 1 to 2×10^5 cells/ml in a 24-well tissue culture plate and cultured in a DMEM medium containing 10% FBS for 24 hours. The culture was carried out in a 5% CO2 incubator. Subsequently, the medium was replaced with a serum-free medium, and the cells were starved for 12 hours, and then treated with each sample at a predetermined concentration according to Table 2 for 30 minutes. After the sample treatment was completed, the cells were treated with 500 ng/ml lipopolysaccharides (LPS, SIGMA, catalog No. L43901) and then cultured for an additional 18 hours. Next, the culture supernatant was taken, transferred to a 96-well tissue culture plate and reacted with GREISS reagent (SIGMA, catalog No. G4410) at room temperature for 15 minutes, and then absorbance was measured at 540 nm using an ELISA reader. Thereafter, NO was quantified using the measured absorbance, and the reduction rate of NO produced in the experimental group compared to the positive control treated with 20 μg/ml of L-NMMA was calculated as (the value of the positive control−the value of the sample treatment group)÷the value of the negative control×100, which was used as a NO production suppression ability.

[6] = Zeta-potential analysis by dynamic light scattering (Zetasizer Nano-ZS); assay type: physicochemical; conditions: dispersed in distilled water, triplicate, several peaks printed with their share (%)
Procedure: To analyze the binding characteristics in the complexes of Examples 1 and 2, particle size analysis and zeta-potential analysis were performed. Chondroitin sulfate (CS), arginine (R), and glutamine (Q), a simple mixture of chondroitin sulfate and arginine or glutamine (CS/R or CS/Q mixture), and a complex of chondroitin sulfate and arginine or glutamine (CS-R or CS-Q complex) were analyzed by dynamic light scattering using a Zetasizer Nano-ZS (Malvern Instruments, Worcester, UK) to measure the particle size (effective dynamic diameter), particle size distribution and zeta potential of the samples dispersed on a colloid. Samples for the measurements were prepared by being dispersed in distilled water, and an automatic temperature-controlled cell with a scattering angle of 90° and software provided by the manufacturer were used. After measurement was conducted in triplicate for each sample, a zeta-potential value was calculated, and the results are shown in the following Table 1.

Row | Compound | Cell activity ability (human fibroblasts) | ZO-1 expression ability [1] | Hyaluronic acid synthesis ability [2] | Collagen type 1 synthesis ability [3] | S. epidermidis growth rate (%) [4] [%] | NO production suppression ability [5] | Zeta potential (mV) [6] [mV]
1 | chondroitin sulfate [Chondroitin sulfate (CS)] | 8.74 | 25.0 | 1.8 | 3.55 | 6.081 | 25.6 | −18
2 | NC(=O)CC[C@H](N)C(=O)O [Glutamine (Q), glutamine] | −11.66 | 11.0 | 2.8 | 2.78 | – | 20.4 | –
3 | N=C(N)NCCC[C@H](N)C(=O)O [Arginine (R), arginine] | −12.79 | – | −2.1 | −12.58 | – | 30.3 | −4
4 | TGF-b | – | – | – | 21.15 | – | – | –
5 | CC1=C(/C=C/C(C)=C/C=C/C(C)=C/C(=O)O)C(C)(C)CCC1 [Retinoic acid] | – | – | 16.8 | – | – | – | –
